The record followed here is patent publication US6787674B1, “(+)-1-Bisabolone isolated from cymbopogon flexuosus and antibacterial activity thereof” (Council of Scientific and Industrial Research, priority 2003, dated 2004).

Common to all, as to type: cell-based
In one test the test system is gram positive bacteria. Nature of the test: In vitro antibacterial activity compared with standard ampicillin. The procedure: (§1) The pure bacterial cultures of test bacteria were procured from laboratory culture collection maintained at RRL, Jammu. The bacterial organisms were subcultured on L B. broth. Following filter paper disc agar diffusion method (Maruzella, J. C. and Henry, P. A. 1958, the antifungal activity of perfume oils. J. Amer. Pharm. Ass., 47:471-476).
(§2) 20 ml of sterilized medium was taken in each petriplate. After the agar has hardened, 2 ml of 24 hrs. broth culture of organism was added to each petriplate and mixed thoroughly by rotatory motion of the plate and allowed to set. The sterilized Whatman filter paper No. 1 discs (4 mm diameter) were thoroughly moistened with 5 μl of (+)-1-bisabolone of formula 1 in dilution of 1:50, 1:100 in the solvent Tween-80 and placed on the seeded agar plates. The standard antibiotic disc of ampicillin was placed on surface of each seeded petriplate as standard for anti-bacterial activity. Three each of seeded agar plates for each organism were incubated at 37° C. for 36 hrs. […] The zone of inhibition was measured with the help of a divider. The […] were performed in triplicate and average zones of inhibition for anti-bacterial activity are recorded in Table-2.

Another test deals with other test bacteria. Put plainly: In vitro antibacterial activity, other test bacteria. On the procedure: as §1, §2
Another test concerns Staphylococcus aureus. Nature of the test: Filter paper disc agar diffusion, antibacterial activity. The procedure: as §1, §2
A general note: Agar diffusion results depend on both activity and mobility in agar.

Another test relates to Bacillus subtilis. The description is as above. The procedure: as §1, §2
The next test deals with Bacillus cereus. The test is described as above. The procedure:
as §1, §2

The mark [1] stands for this setting: Pure 1, 4 mm disc, 37° C., 36 hrs.
[2] abbreviates: dilution 1:50 in Tween-80, 5 μl on 4 mm disc, 37° C., 36 hrs.
Setting [3] is: dilution 1:100 in Tween-80, 5 μl on 4 mm disc, 37° C., 36 hrs.
Where [4] appears, read: control (standard antibiotic disc of ampicillin).

`CC(C)=CCC[C@H](C)[C@H]1CCC(C)=CC1=O` [(+)-1-bisabolone]: the “activity compared with the standard ampicillin” value in the test on gram positive bacteria is given as “far better activity”. Also, the “in vitro antibacterial activity (in words)” value is listed as “good to moderate activity” in the test with other test bacteria, “strongly active” in the test on Staphylococcus aureus, “strongly active” in the test with Bacillus subtilis and “strongly active” with Bacillus cereus. Besides, the “Diameter (mm) of zone inhibition” value is 24 mm with Staphylococcus aureus (setting [1]); 19 mm in the test on Staphylococcus aureus (setting [2]); 13 mm in the test on Staphylococcus aureus (setting [3]); 19 mm with Bacillus subtilis (setting [1]); 15 mm in the test with Bacillus subtilis (setting [2]); 13 mm in the test on Bacillus subtilis (setting [3]). Moreover, the “Diameter (mm) of zone inhibition” value came out at 21 mm in the test on Bacillus cereus (setting [1]), 13 mm with Bacillus cereus (setting [2]) and 9 mm with Bacillus cereus (setting [3]).
In the case of `CC1(C)S[C@@H]2[C@H](NC(=O)[C@H](N)c3ccccc3)C(=O)N2[C@H]1C(=O)O` [control, ampicillin, reference compound], the “Diameter (mm) of zone inhibition” value with Staphylococcus aureus (setting [4]) is reported as 6 mm; in the test on Bacillus subtilis (setting [4]), 5 mm; with Bacillus cereus (setting [4]) it was 4 mm.
